Reference: US9708314B2, “Heterocyclic amide compound” (NISSAN CHEMICAL INDUSTRIES, LTD., priority 2013, dated 2017)

Legend:
Assay type in all cases: in vivo
[1] = tested on: directly sowed Oryza sativa; assay: Test Example 3: effect on crop by application to foliage (Wagner pot, water depth 0.1-0.5 cm); details: Nineteenth Table; application to foliage; application herbicide amount 320 g/ha
Outline: (§1)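 Post-emergence foliar application at a stated g/ha rate to plants grown 14 days from seed in alluvial soil, greenhouse 25–30 °C. Visual score after 3 weeks: 0 (≤5% effect) through 5 (≥90%).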

[2] = tested on: Monochoria vaginalis; assay: Test Example 2: herbicidal activity, application during weed generation in submerged conditions; details: Eighteenth Table; application herbicide amount 320 g/ha
Outline: (§2)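 Seeds were sown together in alluvial soil kept under 4 cm of water and grown at 25 °C to 30 °C. Once plants reached the one- to two-leaf stage, the diluted emulsion was applied to the water surface at a predetermined g/ha amount, and effects were rated 0–5 after three weeks.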

[3] = tested on: Echinochloa oryzacola Vasing.; assay: as above; details: Eighteenth Table; application herbicide amount 320 g/ha
Outline: as §2

[4] = tested on: Scirpus juncoides; assay: as above; details: Eighteenth Table; application herbicide amount 320 g/ha
Outline: as §2

[5] = tested on: Echinochloa crus-galli var. crus-galli; assay: Test Example 3: herbicidal effect by application to foliage (Wagner pot, water depth 0.1-0.5 cm); details: Nineteenth Table; application to foliage; application herbicide amount 320 g/ha
Outline: as §1

[6] = tested on: Leptochloa chinensis; assay: as above; details: Nineteenth Table; application to foliage; application herbicide amount 320 g/ha
Outline: as §1

[7] = tested on: Cyperus difformis; assay: as above; details: Nineteenth Table; application to foliage; application herbicide amount 320 g/ha
Outline: as §1

[8] = tested on: Monochoria vaginalis; assay: Test Example 1: herbicidal activity, application before weed generation in submerged conditions; details: Application herbicide amount 320 g/ha; Seventeenth Table
Outline: (§3)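 Water-diluted emulsion formulation is applied onto flood water (4 cm deep) covering alluvial soil on the day weed seeds are sown, after transplanting 2.5 leaf stage rice. Rates are expressed per hectare. Injury or control is graded 0–5 three weeks later.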

[9] = tested on: Echinochloa oryzacola Vasing.; assay: as above; details: Application herbicide amount 320 g/ha; Seventeenth Table
Outline: as §3

[10] = tested on: Scirpus juncoides; assay: as above; details: Application herbicide amount 320 g/ha; Seventeenth Table
Outline: as §3

SMILES	b (effect on crop grade) [1]	C (Monochoria vaginalis) herbicidal ratio grade [2]	A (Echinochloa oryzicola Vasing.) herbicidal ratio grade [3]	B (Scirpus juncoides) herbicidal ratio grade [4]	H (herbicidal effect grade) [5]	D (herbicidal effect grade) [6]	E (herbicidal effect grade) [7]	C: Monochoria vaginalis (herbicidal effect grade) [8]	A: Echinochloa oryzicola Vasing. (herbicidal effect grade) [9]	B: Scirpus juncoides (herbicidal effect grade) [10]
O=C(Nc1nnco1)c1ccc(C(F)(F)F)n2c(N3CCOCC3)nnc12 [1-110]	5 (Herbicidal ratio of 90% or more (almost completely withered))	4 (Herbicidal ratio of 70% or more and less than 90%)	4 (Herbicidal ratio of 70% or more and less than 90%)	3 (Herbicidal ratio of 40% or more and less than 70%)	5 (Herbicidal ratio of 90% or more (almost completely withered))	5 (Herbicidal ratio of 90% or more (almost completely withered))	5 (Herbicidal ratio of 90% or more (almost completely withered))	4 (Herbicidal ratio of 70% or more and less than 90%)	5 (Herbicidal ratio of 90% or more (almost completely withered))	4 (Herbicidal ratio of 70% or more and less than 90%)
CCOc1nnc2c(C(=O)Nc3nnco3)ccc(C(F)(F)F)n12 [1-112]	0 (Herbicidal ratio of 5% or less (almost no effect))	0 (Herbicidal ratio of 5% or less (almost no effect))	1 (Herbicidal ratio of 5% or more and less than 20%)	2 (Herbicidal ratio of 20% or more and less than 40%)	3 (Herbicidal ratio of 40% or more and less than 70%)	2 (Herbicidal ratio of 20% or more and less than 40%)	1 (Herbicidal ratio of 5% or more and less than 20%)	2 (Herbicidal ratio of 20% or more and less than 40%)	3 (Herbicidal ratio of 40% or more and less than 70%)	3 (Herbicidal ratio of 40% or more and less than 70%)
Cc1nnc(NC(=O)c2ccc(C(F)(F)F)n3c(SCc4ccccc4)nnc23)o1 [1-113]	0 (Herbicidal ratio of 5% or less (almost no effect))	0 (Herbicidal ratio of 5% or less (almost no effect))	2 (Herbicidal ratio of 20% or more and less than 40%)	0 (Herbicidal ratio of 5% or less (almost no effect))	4 (Herbicidal ratio of 70% or more and less than 90%)	3 (Herbicidal ratio of 40% or more and less than 70%)	3 (Herbicidal ratio of 40% or more and less than 70%)	2 (Herbicidal ratio of 20% or more and less than 40%)	4 (Herbicidal ratio of 70% or more and less than 90%)	3 (Herbicidal ratio of 40% or more and less than 70%)
COc1ccc(CSc2nnc3c(C(=O)Nc4nnc(C)o4)ccc(C(F)(F)F)n23)cc1 [1-114]	0 (Herbicidal ratio of 5% or less (almost no effect))	0 (Herbicidal ratio of 5% or less (almost no effect))	0 (Herbicidal ratio of 5% or less (almost no effect))	1 (Herbicidal ratio of 5% or more and less than 20%)	4 (Herbicidal ratio of 70% or more and less than 90%)	4 (Herbicidal ratio of 70% or more and less than 90%)	2 (Herbicidal ratio of 20% or more and less than 40%)	0 (Herbicidal ratio of 5% or less (almost no effect))	3 (Herbicidal ratio of 40% or more and less than 70%)	2 (Herbicidal ratio of 20% or more and less than 40%)
Cc1nnc(NC(=O)c2ccc(C(F)(F)F)n3c(SCC4CCCO4)nnc23)o1 (stereo not shown) [1-116]	0 (Herbicidal ratio of 5% or less (almost no effect))	0 (Herbicidal ratio of 5% or less (almost no effect))	3 (Herbicidal ratio of 40% or more and less than 70%)	4 (Herbicidal ratio of 70% or more and less than 90%)	4 (Herbicidal ratio of 70% or more and less than 90%)	4 (Herbicidal ratio of 70% or more and less than 90%)	0 (Herbicidal ratio of 5% or less (almost no effect))	2 (Herbicidal ratio of 20% or more and less than 40%)	5 (Herbicidal ratio of 90% or more (almost completely withered))	4 (Herbicidal ratio of 70% or more and less than 90%)
Cc1nnc(NC(=O)c2ccc(C(F)(F)F)n3c(N4CCSCC4)nnc23)o1 [1-118]	3 (Herbicidal ratio of 40% or more and less than 70%)	0 (Herbicidal ratio of 5% or less (almost no effect))	2 (Herbicidal ratio of 20% or more and less than 40%)	3 (Herbicidal ratio of 40% or more and less than 70%)	5 (Herbicidal ratio of 90% or more (almost completely withered))	5 (Herbicidal ratio of 90% or more (almost completely withered))	3 (Herbicidal ratio of 40% or more and less than 70%)	0 (Herbicidal ratio of 5% or less (almost no effect))	3 (Herbicidal ratio of 40% or more and less than 70%)	2 (Herbicidal ratio of 20% or more and less than 40%)
Cc1nnc(NC(=O)c2ccc(C(F)(F)F)n3c(N4CC[S+]([O-])CC4)nnc23)o1 [1-119]	3 (Herbicidal ratio of 40% or more and less than 70%)	0 (Herbicidal ratio of 5% or less (almost no effect))	4 (Herbicidal ratio of 70% or more and less than 90%)	1 (Herbicidal ratio of 5% or more and less than 20%)	5 (Herbicidal ratio of 90% or more (almost completely withered))	5 (Herbicidal ratio of 90% or more (almost completely withered))	2 (Herbicidal ratio of 20% or more and less than 40%)	0 (Herbicidal ratio of 5% or less (almost no effect))	2 (Herbicidal ratio of 20% or more and less than 40%)	1 (Herbicidal ratio of 5% or more and less than 20%)
